According to ChEMBL document CHEMBL5465560, “Selectivity Literature for EUbOPEN Chemogenomic Library” (2024):

What was measured:
[1] = biological target: Ribosomal protein S6 kinase alpha-3 (Homo sapiens, UniProt P51812); assay: Selectivity interaction (KinomeScan (DiscoverX)) EUB0001049a RPS6KA3; conditions: at 1 µM
[2] = biological target: Dual specificity mitogen-activated protein kinase kinase 1 (Homo sapiens, UniProt Q02750); conditions: at 10 µM
[3] = biological target: MAP kinase-interacting serine/threonine-protein kinase 2 (Homo sapiens, UniProt Q9HBH9); assay: Selectivity interaction (KinomeScan (DiscoverX)) EUB0000229b MKNK2; conditions: at 10 µM
Sequence of MAP kinase-interacting serine/threonine-protein kinase 2 (Q9HBH9 whole entry, looked up): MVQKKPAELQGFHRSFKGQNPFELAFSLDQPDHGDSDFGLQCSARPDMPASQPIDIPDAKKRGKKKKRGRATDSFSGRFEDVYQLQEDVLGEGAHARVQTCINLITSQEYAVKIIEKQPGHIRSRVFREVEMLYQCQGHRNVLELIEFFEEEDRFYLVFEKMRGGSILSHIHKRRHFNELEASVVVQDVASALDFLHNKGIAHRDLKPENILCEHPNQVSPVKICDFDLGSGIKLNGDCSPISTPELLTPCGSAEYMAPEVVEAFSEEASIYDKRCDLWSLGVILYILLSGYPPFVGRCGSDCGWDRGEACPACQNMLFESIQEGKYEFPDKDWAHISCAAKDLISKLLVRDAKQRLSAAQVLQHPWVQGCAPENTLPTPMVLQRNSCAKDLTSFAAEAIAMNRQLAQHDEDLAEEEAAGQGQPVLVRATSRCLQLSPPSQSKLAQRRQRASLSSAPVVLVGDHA

[4] = biological target: Cyclin-dependent kinase 1 (Homo sapiens) (UniProt P06493); assay: Selectivity interaction (Kinase panel (KiNativ target engagement assay in Jurkat cells)) EUB0001635a CDK1; format: cell-based; conditions: Selectivity number of off-targets 0.0, Selectivity number of targets 233.0, Source Knowledge https://www.sciencedirect.com/science/article/pii/S2451945619300674?via%3Dihub, at 1 µM
[5] = biological target: Serine/threonine-protein kinase WNK2 (Homo sapiens) (UniProt Q9Y3S1); assay: Selectivity interaction (ActivX KiNativ screen (kinase selectivity in THP-1 cell lysates)) EUB0000639a WNK2; format: subcellular; conditions: lysate, at 0.2 µM
Sequence of Serine/threonine-protein kinase WNK2 (Homo sapiens) (Q9Y3S1 whole entry): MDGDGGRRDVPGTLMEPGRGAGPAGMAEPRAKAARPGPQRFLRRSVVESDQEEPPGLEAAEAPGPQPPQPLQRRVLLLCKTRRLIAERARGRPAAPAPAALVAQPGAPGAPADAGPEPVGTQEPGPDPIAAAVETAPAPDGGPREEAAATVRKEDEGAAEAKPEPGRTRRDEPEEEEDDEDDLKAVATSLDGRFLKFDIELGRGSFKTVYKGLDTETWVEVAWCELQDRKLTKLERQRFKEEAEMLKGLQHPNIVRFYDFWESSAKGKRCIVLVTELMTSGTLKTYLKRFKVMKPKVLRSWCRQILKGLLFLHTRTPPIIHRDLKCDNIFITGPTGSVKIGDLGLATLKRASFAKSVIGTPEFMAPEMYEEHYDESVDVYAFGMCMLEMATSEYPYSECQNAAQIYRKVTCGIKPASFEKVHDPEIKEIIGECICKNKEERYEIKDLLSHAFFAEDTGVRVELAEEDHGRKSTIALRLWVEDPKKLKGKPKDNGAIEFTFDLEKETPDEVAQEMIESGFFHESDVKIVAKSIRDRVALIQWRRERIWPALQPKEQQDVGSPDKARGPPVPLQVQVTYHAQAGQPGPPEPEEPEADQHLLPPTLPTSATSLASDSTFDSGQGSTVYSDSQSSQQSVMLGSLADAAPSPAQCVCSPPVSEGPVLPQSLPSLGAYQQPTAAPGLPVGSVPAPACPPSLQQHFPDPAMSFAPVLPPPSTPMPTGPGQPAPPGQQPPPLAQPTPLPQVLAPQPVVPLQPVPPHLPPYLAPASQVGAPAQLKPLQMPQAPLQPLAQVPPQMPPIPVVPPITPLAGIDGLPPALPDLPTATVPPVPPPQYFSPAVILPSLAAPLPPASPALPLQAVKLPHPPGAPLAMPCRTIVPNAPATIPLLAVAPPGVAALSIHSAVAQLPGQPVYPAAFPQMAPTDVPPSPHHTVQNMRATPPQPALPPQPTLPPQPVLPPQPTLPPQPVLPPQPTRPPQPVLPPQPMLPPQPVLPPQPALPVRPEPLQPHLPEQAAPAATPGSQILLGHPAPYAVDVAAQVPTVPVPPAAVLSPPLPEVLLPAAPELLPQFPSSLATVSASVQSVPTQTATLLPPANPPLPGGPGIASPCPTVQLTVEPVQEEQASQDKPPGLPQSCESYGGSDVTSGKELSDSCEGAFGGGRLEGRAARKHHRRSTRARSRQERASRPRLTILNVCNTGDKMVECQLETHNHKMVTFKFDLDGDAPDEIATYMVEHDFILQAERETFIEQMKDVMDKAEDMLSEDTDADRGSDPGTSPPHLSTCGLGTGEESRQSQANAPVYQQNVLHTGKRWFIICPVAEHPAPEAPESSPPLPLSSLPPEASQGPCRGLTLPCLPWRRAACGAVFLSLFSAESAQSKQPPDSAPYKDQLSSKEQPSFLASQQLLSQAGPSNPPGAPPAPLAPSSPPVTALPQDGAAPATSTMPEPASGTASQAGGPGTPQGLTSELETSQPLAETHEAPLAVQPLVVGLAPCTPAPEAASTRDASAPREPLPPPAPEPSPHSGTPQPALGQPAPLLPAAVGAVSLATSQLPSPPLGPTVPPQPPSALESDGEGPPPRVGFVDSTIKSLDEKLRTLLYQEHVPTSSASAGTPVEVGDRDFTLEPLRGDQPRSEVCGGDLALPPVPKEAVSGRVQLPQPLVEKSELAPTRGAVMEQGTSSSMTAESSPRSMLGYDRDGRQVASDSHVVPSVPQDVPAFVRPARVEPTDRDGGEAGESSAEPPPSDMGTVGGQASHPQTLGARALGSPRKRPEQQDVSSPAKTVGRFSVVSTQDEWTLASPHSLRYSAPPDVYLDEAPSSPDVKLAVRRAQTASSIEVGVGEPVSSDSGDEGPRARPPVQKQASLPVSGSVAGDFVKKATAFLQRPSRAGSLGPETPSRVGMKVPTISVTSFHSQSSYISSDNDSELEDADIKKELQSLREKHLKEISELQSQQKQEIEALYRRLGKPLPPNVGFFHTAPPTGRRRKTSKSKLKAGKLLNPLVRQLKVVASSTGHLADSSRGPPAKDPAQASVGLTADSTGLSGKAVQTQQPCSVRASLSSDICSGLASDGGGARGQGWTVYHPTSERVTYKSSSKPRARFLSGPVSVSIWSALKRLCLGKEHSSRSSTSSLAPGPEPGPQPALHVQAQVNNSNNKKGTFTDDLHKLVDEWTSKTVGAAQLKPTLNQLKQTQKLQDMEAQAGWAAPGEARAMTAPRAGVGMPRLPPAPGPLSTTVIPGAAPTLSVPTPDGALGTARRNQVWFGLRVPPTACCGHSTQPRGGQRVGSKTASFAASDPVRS

[6] = biological target: Serine/threonine-protein kinase 16 (Homo sapiens, UniProt O75716); assay: Selectivity interaction (ActivX KiNativ screen (kinase selectivity in THP-1 cell lysates)) EUB0000639a STK16; format: subcellular; conditions: lysate, at 0.2 µM
[7] = biological target: T1, Cytoplasmic tyrosine-protein kinase BMX (Homo sapiens) (UniProt P51813); conditions: at 10 µM
T1 sequence (whole entry): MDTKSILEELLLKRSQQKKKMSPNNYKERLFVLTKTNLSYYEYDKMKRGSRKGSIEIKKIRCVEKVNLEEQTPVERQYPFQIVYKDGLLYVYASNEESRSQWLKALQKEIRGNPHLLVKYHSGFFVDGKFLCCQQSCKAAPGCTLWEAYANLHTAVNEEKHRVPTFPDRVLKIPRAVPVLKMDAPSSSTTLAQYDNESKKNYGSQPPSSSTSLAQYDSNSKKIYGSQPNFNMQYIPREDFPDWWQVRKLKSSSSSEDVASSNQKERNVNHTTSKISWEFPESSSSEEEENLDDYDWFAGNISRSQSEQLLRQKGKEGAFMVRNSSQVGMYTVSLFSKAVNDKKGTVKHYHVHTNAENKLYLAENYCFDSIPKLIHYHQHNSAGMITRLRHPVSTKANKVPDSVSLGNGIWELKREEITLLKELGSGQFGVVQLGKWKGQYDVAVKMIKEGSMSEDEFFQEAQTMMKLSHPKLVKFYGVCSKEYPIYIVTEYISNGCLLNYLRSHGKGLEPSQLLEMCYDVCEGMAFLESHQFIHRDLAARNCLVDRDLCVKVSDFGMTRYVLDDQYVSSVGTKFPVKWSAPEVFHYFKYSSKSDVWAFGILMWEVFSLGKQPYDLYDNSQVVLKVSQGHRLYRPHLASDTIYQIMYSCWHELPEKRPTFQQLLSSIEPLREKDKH

[8] = biological target: Platelet-derived growth factor receptor alpha (Homo sapiens, UniProt P16234); assay: Selectivity interaction (KinomeScan (DiscoverX)) EUB0000655a PDGFRA; conditions: at 10 µM
Sequence of Platelet-derived growth factor receptor alpha (P16234 whole entry): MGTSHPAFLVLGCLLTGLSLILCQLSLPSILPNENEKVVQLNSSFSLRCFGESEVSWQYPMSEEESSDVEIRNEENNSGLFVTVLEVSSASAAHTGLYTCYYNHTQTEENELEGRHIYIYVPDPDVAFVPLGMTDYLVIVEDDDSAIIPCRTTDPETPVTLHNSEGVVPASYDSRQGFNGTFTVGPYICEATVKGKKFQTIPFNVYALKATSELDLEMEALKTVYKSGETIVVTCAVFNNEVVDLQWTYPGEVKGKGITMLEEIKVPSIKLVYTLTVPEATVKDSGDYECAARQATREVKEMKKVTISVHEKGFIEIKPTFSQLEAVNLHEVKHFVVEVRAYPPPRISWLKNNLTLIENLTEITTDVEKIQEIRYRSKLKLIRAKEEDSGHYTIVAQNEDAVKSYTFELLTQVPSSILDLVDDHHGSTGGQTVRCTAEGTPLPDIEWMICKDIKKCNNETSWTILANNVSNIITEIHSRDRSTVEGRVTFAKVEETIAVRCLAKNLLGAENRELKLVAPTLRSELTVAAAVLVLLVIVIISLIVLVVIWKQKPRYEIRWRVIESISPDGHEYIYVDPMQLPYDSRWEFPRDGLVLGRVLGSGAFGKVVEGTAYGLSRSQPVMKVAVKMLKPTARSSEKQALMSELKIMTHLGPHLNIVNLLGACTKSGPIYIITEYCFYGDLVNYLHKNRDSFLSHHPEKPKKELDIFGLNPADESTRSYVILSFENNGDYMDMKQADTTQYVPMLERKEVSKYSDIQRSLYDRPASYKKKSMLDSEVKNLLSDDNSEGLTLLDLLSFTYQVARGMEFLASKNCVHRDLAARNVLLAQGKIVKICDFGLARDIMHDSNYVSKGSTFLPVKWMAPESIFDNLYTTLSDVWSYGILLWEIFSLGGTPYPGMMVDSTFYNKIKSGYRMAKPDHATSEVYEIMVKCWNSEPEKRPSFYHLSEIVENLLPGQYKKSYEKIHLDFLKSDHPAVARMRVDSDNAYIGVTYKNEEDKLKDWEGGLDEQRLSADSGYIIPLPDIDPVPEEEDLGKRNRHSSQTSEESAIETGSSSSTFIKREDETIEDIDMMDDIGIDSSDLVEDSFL

[9] = biological target: MAP/microtubule affinity-regulating kinase 3 (Homo sapiens) (UniProt P27448); assay: Selectivity interaction (KinomeScan (DiscoverX)) EUB0000695a MARK3; conditions: at 100 nM
Sequence of MAP/microtubule affinity-regulating kinase 3 (Homo sapiens) (P27448 whole entry, looked up): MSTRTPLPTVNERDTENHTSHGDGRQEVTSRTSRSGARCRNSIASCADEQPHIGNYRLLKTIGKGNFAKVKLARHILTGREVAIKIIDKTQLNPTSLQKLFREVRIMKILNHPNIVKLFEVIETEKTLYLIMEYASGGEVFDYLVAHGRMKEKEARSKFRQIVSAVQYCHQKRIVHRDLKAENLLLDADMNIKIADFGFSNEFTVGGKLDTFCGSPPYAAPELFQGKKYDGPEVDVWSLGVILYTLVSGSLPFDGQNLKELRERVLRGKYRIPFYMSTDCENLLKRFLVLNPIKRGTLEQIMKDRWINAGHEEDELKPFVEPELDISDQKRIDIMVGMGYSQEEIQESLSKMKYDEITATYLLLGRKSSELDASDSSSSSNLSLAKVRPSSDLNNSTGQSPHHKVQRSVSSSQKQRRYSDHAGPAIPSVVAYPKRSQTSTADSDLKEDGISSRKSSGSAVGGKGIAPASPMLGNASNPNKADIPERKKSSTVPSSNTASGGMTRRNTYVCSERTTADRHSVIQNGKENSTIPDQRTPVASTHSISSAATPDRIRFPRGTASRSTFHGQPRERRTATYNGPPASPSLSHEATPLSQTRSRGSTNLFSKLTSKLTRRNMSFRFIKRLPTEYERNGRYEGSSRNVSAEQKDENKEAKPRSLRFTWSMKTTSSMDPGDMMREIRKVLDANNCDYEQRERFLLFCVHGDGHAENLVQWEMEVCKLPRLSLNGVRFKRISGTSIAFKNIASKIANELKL

KCNE1 = KCNE1 (Homo sapiens, UniProt P15382); assay: Selectivity interaction (Panel of kinases, GPCRs, ion channels and transporters (enzymatic assay)) EUB0000266bCl KCNE1
[10] = biological target: Dual specificity protein kinase CLK1 (Homo sapiens, UniProt P49759); assay: Selectivity interaction (SelectScreen profiling (Invitrogen)) EUB0000607a CLK1; conditions: at 2 µM
Sequence of Dual specificity protein kinase CLK1 (P49759 whole entry, looked up): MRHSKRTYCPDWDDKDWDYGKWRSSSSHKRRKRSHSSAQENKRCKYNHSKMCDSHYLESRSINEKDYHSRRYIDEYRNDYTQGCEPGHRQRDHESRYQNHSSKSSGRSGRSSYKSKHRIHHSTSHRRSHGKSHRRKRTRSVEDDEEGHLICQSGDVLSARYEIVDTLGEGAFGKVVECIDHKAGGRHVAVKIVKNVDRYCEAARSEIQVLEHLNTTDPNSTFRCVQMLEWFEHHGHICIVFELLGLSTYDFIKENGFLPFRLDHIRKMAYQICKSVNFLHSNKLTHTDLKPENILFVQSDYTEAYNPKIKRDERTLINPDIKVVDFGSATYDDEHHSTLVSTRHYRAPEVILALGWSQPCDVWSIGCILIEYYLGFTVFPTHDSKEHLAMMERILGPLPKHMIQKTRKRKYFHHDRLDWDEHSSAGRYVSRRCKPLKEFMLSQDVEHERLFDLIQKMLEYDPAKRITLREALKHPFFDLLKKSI

[11] = biological target: T2, Dual specificity mitogen-activated protein kinase kinase 5 (Homo sapiens) (UniProt Q13163); assay: Selectivity interaction (Kinase panel (Carna Biosciences)) EUB0001542aTs MAP2K5; conditions: at 1 µM
T2 sequence (whole entry): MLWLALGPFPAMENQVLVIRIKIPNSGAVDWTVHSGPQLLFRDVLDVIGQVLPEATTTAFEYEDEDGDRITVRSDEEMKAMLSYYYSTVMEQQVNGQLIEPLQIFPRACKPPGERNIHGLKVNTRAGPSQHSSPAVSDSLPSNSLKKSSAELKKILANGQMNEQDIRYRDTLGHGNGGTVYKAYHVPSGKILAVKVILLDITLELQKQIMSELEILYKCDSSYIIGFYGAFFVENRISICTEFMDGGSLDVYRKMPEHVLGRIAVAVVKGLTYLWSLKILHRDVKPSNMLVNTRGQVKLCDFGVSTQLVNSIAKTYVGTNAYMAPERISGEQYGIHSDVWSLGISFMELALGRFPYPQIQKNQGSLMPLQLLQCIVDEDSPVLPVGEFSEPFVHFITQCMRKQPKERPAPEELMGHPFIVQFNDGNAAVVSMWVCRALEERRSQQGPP

## COc1cc(Nc2nc(C)cc(-c3cnn4nc(OC)ccc34)n2)cc(C(F)(F)F)c1
[1]
  % of control: 98%

## CC(=O)Nc1cccc(-n2c(=O)n(C3CC3)c(=O)c3c(Nc4ccc(I)cc4F)n(C)c(=O)c(C)c32)c1
[2]
  % of control: 28%

## COc1cc(N(C)c2ccnc3ccc(C(F)(F)F)cc23)cc(OC)c1OC
[3]
  % binding: 90%

## C=CC(=O)Nc1ccc(C(=O)Nc2[nH]nc3c2CN(C(=O)N[C@H](CN(C)C)c2ccccc2)C3(C)C)cc1
[4]
  % of engagement: -6.3%

## CC[C@@H]1[C@H](F)C(=O)N[C@@H]1COc1nccc2cc(C(N)=O)c(OC)cc12 [ZIMLOVISERTIB]
[5]
  % of inhibition: -12%
[6]
  % of inhibition: 35.1%

## Cc1cc([C@@H](C)Nc2ccccc2C(=O)O)c2nc(N3CCOCC3)cc(=O)n2c1 [AZD-6482]
[7]
  % of control: 85%

## CN(C)CCOc1ccc(-c2nc(-c3ccncc3)c(-c3ccc4c(c3)CC/C4=N\O)[nH]2)cc1
[8]
  % of control: 100%

## Cc1cc(F)c(C(=O)Nc2cccc(-c3nncn3C(C)C)n2)cc1-n1cnc(C2CC2)c1
[9]
  % of control: 90%

## CCn1c(-c2nc3cc(C(=O)N4CCCC(N)C4)ccc3n2C)cc2ccccc21 (configuration not stated)
KCNE1
  XC50: > 25.1 µM

## CNC(=O)Nc1ccc(-c2nc(N3CC4CCC(C3)O4)c3cnn(C4CCC5(CC4)OCCO5)c3n2)cc1
[10]
  % of inhibition: -3%

## Cn1cc(Nc2nccc(N3CC4CCC(C3)N4C(=O)[C@@H]3CC3(F)F)n2)cn1
[11]
  % of inhibition: 70%
